What all share (format): cell-based, Mouse
Experiment [1] has as its system brown adipocyte-associated markers (Ucp1, Cidea, Cox8b, Dio2, Elovl3, Pgc1a, Prdm16). As to the kind of experiment: Brown adipocyte-associated marker gene expression (qPCR) in adipocytes. To be noted: FIG. 14; GCG 0.1, 1, 5, 10 or 20 μM; 24 hours.
Source text: After extracting RNA using Trizol™ reagent (Thermo Fisher Scientific), cDNA was synthesized using a RevertAid™ 1st strand cDNA synthesis kit (Thermo Fisher Scientific). Then, the expression level of target genes was quantified by CFX96 real-time quantitative PCR (qPCR; Bio-Rad) using a housekeeping gene (cyclophilin).
In experiment [2] the test system is 3T3-L1 adipocytes. As to the kind of experiment: Oxygen consumption rate (XF analyzer) in adipocytes. To be noted: FIG. 18; 20 μM GCG, 24 hours; with oligomycin, FCCP, rotenone/antimycin A; normalized to protein. The protocol:
Mouse-derived 3T3-L1 adipocytes (American Type Culture Collection, ATCC) were cultured in an incubator using DMEM (Dulbecco's modified Eagle's medium; Sigma-Aldrich) containing 10% bovine calf serum (BCS; HyClone) and 1% penicillin/streptomycin (P/S; Sigma-Aldrich) under a standard condition (37° C., 5% CO2). For cellular differentiation, 48 hours after the cells were filled 100% on a plate, they were cultured again for 48 hours after replacing the medium with DMEM supplemented with 10% fetal bovine serum (FBS; Hyclone), 1% P/S, 0.5 mM 3-isobutyl-1-methylxanthine (IBMX; Sigma-Aldrich), 1 μM dexamethasone (Sigma-Aldrich) and 5 μg/mL insulin (Sigma-Aldrich). Then, differentiation of adipocytes was induced by culturing the cells additionally for 10 days while replacing the medium with a medium supplemented with 10% FBS, 5 μg/mL insulin and 1% P/S at two-day intervals.
The adipocytes differentiated as in Reference Example 1 were treated with 20 μM gallocatechin gallate (GCG), which is contained in large quantities particularly in the heat-transformed green tea extract (HTGT) (Table 2), for 24 hours. A negative control group was treated with a vehicle (distilled water).
Then, oxygen level and oxygen consumption rate (OCR) were measured using an XF analyzer (Agilent, Santa Clara, Calif., USA). […]

Experiment [3] has as its system 3T3-L1 adipocytes. As to the kind of experiment: Triglyceride degradation in adipocytes (glycerol quantification). To be noted: FIG. 9; HTGT 10, 50 or 100 μg/mL, IBMX 500 μM; 4 hours.

As for `O=C(O[C@@H]1Cc2c(O)cc(O)cc2O[C@H]1c1cc(O)c(O)c(O)c1)c1cc(O)c(O)c(O)c1` [GCG, gallocatechin gallate], in experiment [1], the “expression of Elovl3” value was “increased the expression of the fat degradation-associated Elovl3”, the “expression of Prdm16” value is recorded as “not changed significantly” and the “expression of uncoupling protein 1 (Ucp1)” value is “increased the expression”. Besides, in experiment [2], the “oxygen consumption rate (OCR)” value is listed as “increased OCR”.
Consider `CC(C)Cn1c(=O)n(C)c(=O)c2[nH]cnc21` [IBMX, 3-isobutyl-1-methylxanthine], for which the “degradation of triglycerides in adipocytes (glycerol produced)” value in experiment [3] is on record as “facilitating the degradation of triglycerides in adipocytes”.

Source of the values: US20220218778A1, “COMPOSITION FOR REDUCING BODY FAT COMPRISING GREEN TEA EXTRACT CONTAINING GALLOCATECHIN GALLATE AS AN ACTIVE INGREDIENT AND MANUFACTURING METHOD THEREOF” (AMOREPACIFIC CORPORATION, priority 2021, published 2022).
